Assay results reported in publication PMC6615597, “Spermine in semen of male sea lamprey acts as a sex pheromone” (PLoS Biology, 2019).
Read-outs that look alike come from different tables or passages of the source.

Columns and labels:
[1] = test system: T1, TAAR348 (trace amine-associated receptor (TAAR)-like receptor 348); assay: TR-FRET cAMP assay in TAAR348-expressing HEK293T cells; inhibition of […] spermine response; assay type: cell-based, Petromyzon marinus
T1 construct: full-length ORF (348 residues) with N-terminal Rho-tag, expressed in HEK293T

[2] = test system: T1, TAAR348 (trace amine-associated receptor (TAAR)-like receptor 348); assay: TR-FRET cAMP assay in TAAR348-expressing HEK293T cells (agonist); assay type: cell-based, Petromyzon marinus
[3] = test system: TAAR348 (trace amine-associated receptor (TAAR)-like receptor 348)

C1CNCCNCCNCCN1 [SP20, 1,4,7,10-tetraazacyclododecane]
IC50 [1]: 0.6 ± 0.1 µM

NCCCNCCCCNCCCNC(=O)Cc1cccc2ccccc12 [SP21, 1-naphthylacetyl spermine]
EC50 [2]: 5 ± 1 µM

NCCCNCCCCNCCCN [spermine]
EC50 [3]: 34 ± 1 µM
